Values quoted from earlier work, collected in patent US20240024337A1, “INTERACTION OF SARS-COV-2 PROTEINS WITH MOLECULAR AND […] […] HOST CELLS AND FORMULATIONS TO TREAT COVID-19” (AKSEERA PHARMA CORP., priority 2020, published 2024).

Test system: HT22 hippocampal neurons
Details: 5 μM; oxygen-glucose deprivation

Q: For C=C(C)[C@@H]1CCC(C)=C[C@H]1c1c(O)cc(CCCCC)cc1O [Cannabidiol, 2-[(1R,6R)-3-Methyl-6-(1-methylethenyl)-2-cyclohexen-1-yl]-5-pentyl-1,3-benzenediol], which “apoptosis and oxidative stress” value is on record?
A: significantly attenuated
